Where “and” joins values, the source holds several entries; their conditions need not be identical. Identical values can stand only once.

The subject of one data set is Jurkat E6.1 cells. In words: intracellular ROS, ROS-red staining and flow cytometry, Jurkat E6.1. In kind it is cell-based, human. Set-up: ROS Negative Cells / ROS Negative Cells (Figure S9 a) / ROS Negative Cells (Figure S9c): unit not given here. Particulars: for ROS Negative Cells (Figure S9 a) / ROS Positive Cells (Figure S9 a): replicates; for ROS Negative Cells (Figure S9 a) / ROS Positive Cells (Figure S9 a) / ROS Negative Cells / ROS Positive Cells: listed as AVX420; for ROS Negative Cells (Figure S9c) / ROS Positive Cells (Figure S9c): rep1, rep2. As to the method:
Data are the mean ± stdev of 3 biological replicates. […] Data are the mean ± stdev of 3 biological replicates.
Rather, when combined with AVX420, exogenous AA augmented cell death (Fig. 6e). […] The response occurred within 1 h, peaked at 8–12 h, and preceded the loss of cell viability (Fig. S9a, b).
After treatment, cells were stained with cellular ROS Assay Kit (Cat. No. ab186029; Abcam, Cambridge, United Kingdom) following the manufacturer’s instructions, and ROS-positive cells were quantified by flow cytometry using either the NovoCyte flow cytometer, and Novoexpress Software v1.5.0 from Agilent Technologies (Santa Clara, USA) or the CytoFLEX flow cytometer and CytExpert analysis software v 2.5 from Beckman Coulter (California, United States). An example showing the gating strategy used to assess ROS-Red staining is found in Fig. S9d.
Background: In flow cytometry, cells or beads pass a laser one at a time.

Data set [1] concerns the target T1, human calcium-independent GVIA iPLA2 (Homo sapiens, UniProt O60733).
T1 sequence (O60733 1-806): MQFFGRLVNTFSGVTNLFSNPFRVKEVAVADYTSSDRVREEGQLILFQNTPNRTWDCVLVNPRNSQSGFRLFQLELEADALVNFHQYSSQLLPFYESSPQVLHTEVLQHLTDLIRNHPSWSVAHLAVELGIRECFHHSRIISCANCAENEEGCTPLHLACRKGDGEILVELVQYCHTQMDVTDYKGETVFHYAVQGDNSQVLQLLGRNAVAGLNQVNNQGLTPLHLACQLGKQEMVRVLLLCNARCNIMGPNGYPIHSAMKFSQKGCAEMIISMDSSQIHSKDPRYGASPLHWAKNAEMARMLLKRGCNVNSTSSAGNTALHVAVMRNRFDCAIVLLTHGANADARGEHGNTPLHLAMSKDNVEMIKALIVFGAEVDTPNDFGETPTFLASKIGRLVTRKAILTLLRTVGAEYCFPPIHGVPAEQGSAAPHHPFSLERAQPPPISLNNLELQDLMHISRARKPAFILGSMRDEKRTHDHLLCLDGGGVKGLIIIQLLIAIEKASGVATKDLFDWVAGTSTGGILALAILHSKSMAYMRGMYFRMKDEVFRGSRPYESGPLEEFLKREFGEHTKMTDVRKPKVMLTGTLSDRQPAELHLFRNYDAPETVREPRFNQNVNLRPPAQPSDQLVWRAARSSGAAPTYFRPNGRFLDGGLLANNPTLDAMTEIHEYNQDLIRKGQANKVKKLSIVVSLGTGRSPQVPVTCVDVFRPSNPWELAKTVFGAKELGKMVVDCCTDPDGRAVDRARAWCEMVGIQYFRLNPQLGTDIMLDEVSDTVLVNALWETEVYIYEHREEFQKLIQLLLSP
Set-up: method as in PMID 25152071. The following applies: 0.091 mole fraction; previously published data ref 19; cited from earlier work.

The next data set concerns the target T2, recombinant human cPLA2α (Homo sapiens, UniProt P47712).
T2 sequence (P47712 1-749): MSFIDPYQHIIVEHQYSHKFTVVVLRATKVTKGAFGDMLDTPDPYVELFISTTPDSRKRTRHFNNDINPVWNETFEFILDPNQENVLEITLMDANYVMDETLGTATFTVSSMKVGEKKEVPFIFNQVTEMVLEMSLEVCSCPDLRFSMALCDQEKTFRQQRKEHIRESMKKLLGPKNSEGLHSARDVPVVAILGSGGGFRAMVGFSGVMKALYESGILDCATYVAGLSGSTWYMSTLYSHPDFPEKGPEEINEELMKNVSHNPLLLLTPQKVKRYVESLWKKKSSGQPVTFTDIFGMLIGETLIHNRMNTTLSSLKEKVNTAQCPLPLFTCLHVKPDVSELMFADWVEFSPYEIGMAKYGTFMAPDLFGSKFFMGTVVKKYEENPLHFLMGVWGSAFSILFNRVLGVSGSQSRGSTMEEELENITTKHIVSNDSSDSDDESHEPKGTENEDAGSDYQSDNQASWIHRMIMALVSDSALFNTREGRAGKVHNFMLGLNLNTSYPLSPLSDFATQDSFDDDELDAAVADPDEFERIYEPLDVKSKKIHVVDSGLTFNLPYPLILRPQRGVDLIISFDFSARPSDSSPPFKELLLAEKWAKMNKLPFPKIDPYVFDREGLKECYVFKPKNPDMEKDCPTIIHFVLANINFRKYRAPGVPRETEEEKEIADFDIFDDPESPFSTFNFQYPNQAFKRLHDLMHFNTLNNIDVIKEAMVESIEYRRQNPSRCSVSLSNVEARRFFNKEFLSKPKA
More on the design: method as in PMID 25152071. The following applies: previously published data ref 19, cited from earlier work.

Turning to `CCCCCCCOc1ccc(OCC(=O)c2nc(C(=O)OC)cs2)cc1` [GK420], the “ROS Negative Cells (Figure S9 a)” value with Jurkat E6.1 cells (1h) is 68 and 69 and 77 and 81; with Jurkat E6.1 cells (2h) it was 46 (2×) and 47 (2×) and 51 and 54 and 50 and 48; in the data set with Jurkat E6.1 cells (4h) it was 33 (2×) and 32 and 37 and 30 and 29 and 34 (2×); with Jurkat E6.1 cells (8h) it was 26 and 27; with Jurkat E6.1 cells (12h), 18 and 19 and 21 and 16; with Jurkat E6.1 cells (16h), 21 and 22 and 18 (2×) and 17 and 19. The “ROS Negative Cells (Figure S9 a)” value in the data set on Jurkat E6.1 cells (20h) was 14 and 13 and 15; in the data set on Jurkat E6.1 cells (24h), 13 and 15 and 16. The “ROS Positive Cells (Figure S9 a)” value in the data set with Jurkat E6.1 cells (1h) is 31 and 23 and 19 and 32; in the data set on Jurkat E6.1 cells (2h), 53 (2×) and 49 and 46 and 50 and 54 (2×) and 52; in the data set with Jurkat E6.1 cells (4h) it was 67 (2×) and 68 and 63 and 70 and 71 and 66 (2×); in the data set on Jurkat E6.1 cells (8h) it was 73 and 74; in the data set with Jurkat E6.1 cells (12h), 81 and 79 and 84 and 82; with Jurkat E6.1 cells (16h) it was 78 and 82 (2×) and 83 and 81 and 79. In addition, the “ROS Positive Cells (Figure S9 a)” value was 87 and 85 and 86 in the data set on Jurkat E6.1 cells (20h); 85 and 84 and 87 with Jurkat E6.1 cells (24h). Further, the “ROS Negative Cells (Figure S9c)” value was 80 and 83 in the data set with Jurkat E6.1 cells (AVX420 0.5 µM + AA 20 µM); 98 and 99 in the data set on Jurkat E6.1 cells (AVX420 0.5 µM + Lip 5 µM); 80 and 76 with Jurkat E6.1 cells (AVX420 0.5 µM). Besides, the “ROS Positive Cells (Figure S9c)” value with Jurkat E6.1 cells (AVX420 0.5 µM + AA 20 µM) was 20 and 17; in the data set with Jurkat E6.1 cells (AVX420 0.5 µM + Lip 5 µM), 2 and 1; with Jurkat E6.1 cells (AVX420 0.5 µM) it was 20 and 24. Further, the “ROS Negative Cells” value in the data set on Jurkat E6.1 cells (Jurkat E6.1, 0.25 µM) is 78 and 75 and 60 and 66; with Jurkat E6.1 cells (Jurkat E6.1, 0.5 µM), 46 and 45 and 51; in the data set with Jurkat E6.1 cells (Jurkat E6.1, 1 µM) it was 19 and 21 and 30 and 22. Further, the “ROS Positive Cells” value in the data set on Jurkat E6.1 cells (Jurkat E6.1, 0.25 µM) was 22 and 25 and 40 and 34; in the data set with Jurkat E6.1 cells (Jurkat E6.1, 0.5 µM), 54 and 55 and 49; in the data set with Jurkat E6.1 cells (Jurkat E6.1, 1 µM), 81 and 79 and 70 and 78; with Jurkat E6.1 cells (Jurkat E6.1, 2 µM) it was 95 and 93 and 89 and 92. Besides, the “intracellular ROS (iROS)” value with Jurkat E6.1 cells (Jurkat E6.1, 4 h) is reported as “dose-dependent increase”.
In the case of `CCCCCCCCc1ccc(OCC(=O)c2nc(C(=O)OC)cs2)cc1` [GK470], the “GVIA iPLA2 % Inhib” value in data set [1] is listed as 86%. Besides, the “cPLA2α % Inhib” value on recombinant human cPLA2α (0.091 mole fraction) is listed as more than 90%. The “cPLA2α XI(50)” value on recombinant human cPLA2α (XI(50) ± stdev) is recorded as 0.011 ± 0.005 mole fraction.

The values above are taken from PMC11696576, “Next generation thiazolyl ketone inhibitors of cytosolic phospholipase A2 α for targeted cancer therapy” (Nature Communications, 2025).
